Assay results reported in ChEMBL document CHEMBL1127138, “2-substituted penems, new candidates for cephalosporinase inhibitors” (Bioorg Med Chem Lett, 1993).

How the values were obtained:
[1] = target: Beta-lactamase (Enterobacter cloacae) (UniProt P05364); test: Tested for the inhibitory activity against beta-lactamase, Enterobacter cloacae at dose of 0.66 ug/mL using substrate cephaloridine (CER)
[2] = target: Beta-lactamase (Enterobacter cloacae) (UniProt P05364); test: Tested for the inhibitory activity against beta-lactamase, Enterobacter cloacae at dose of 0.66 ug/mL using substrate cephaloridine (CER); (E. Cloacae enzyme activity is 1.1517 U/ml)
[3] = target: Beta-lactamase (Pseudomonas aeruginosa (strain ATCC 15692 / PAO1 / 1C / PRS 101 / LMG12228)) (UniProt P24735); test: Tested for the inhibitory activity against beta-lactamase, Pseudomonas aeruginosa at dose of 0.66 ug/mL using substrate cephaloridine (CER); (P. Aeruginosa enzyme activity is 1.0352 U/ml)
Beta-lactamase (Pseudomonas aeruginosa (strain ATCC 15692 / PAO1 / 1C / PRS 101 / LMG12228)), sequence (P24735 27-397 limits assumed): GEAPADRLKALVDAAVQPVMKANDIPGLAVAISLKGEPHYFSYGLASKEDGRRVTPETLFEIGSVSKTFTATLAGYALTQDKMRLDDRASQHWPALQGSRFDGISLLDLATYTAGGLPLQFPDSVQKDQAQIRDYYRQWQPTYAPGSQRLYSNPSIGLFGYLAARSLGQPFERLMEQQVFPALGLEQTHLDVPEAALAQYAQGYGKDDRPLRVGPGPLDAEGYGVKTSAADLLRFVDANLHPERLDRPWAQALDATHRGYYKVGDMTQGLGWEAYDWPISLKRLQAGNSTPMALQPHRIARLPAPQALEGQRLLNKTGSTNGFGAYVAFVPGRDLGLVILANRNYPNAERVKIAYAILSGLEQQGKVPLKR

[4] = target: TEM-1 beta-lactamase (Escherichia coli) (UniProt P62593); test: Tested for the inhibitory activity against beta-lactamase type TEM-1 at dose of 0.66 ug/mL using substrate ampicillin (ABPC); (TEM-1 enzyme activity is 1.6328 U/mL)
TEM-1 beta-lactamase (Escherichia coli), sequence (P62593 whole entry, looked up): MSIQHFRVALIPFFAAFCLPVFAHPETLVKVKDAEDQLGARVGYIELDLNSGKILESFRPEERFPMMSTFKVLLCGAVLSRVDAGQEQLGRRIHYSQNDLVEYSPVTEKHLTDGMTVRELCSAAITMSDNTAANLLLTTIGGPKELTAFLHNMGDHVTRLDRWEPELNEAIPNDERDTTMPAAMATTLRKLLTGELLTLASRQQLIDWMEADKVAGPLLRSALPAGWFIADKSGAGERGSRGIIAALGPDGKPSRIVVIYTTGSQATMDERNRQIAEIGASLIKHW

[5] = Tested for the inhibitory activity against beta-lactamase type CTX-1 at dose of 0.66 ug/mL using substrate cephaloridine (CER); (CTX-1 enzyme activity is 0.7363 U/ml)
[6] = target: Beta-lactamase (Enterobacter cloacae) (UniProt P05364); test: Tested for the inhibitory activity against beta-lactamase, Enterobacter cloacae at dose of 0.1 ug/mL using substrate cephaloridine (CER)
[7] = target: Beta-lactamase (Enterobacter cloacae) (UniProt P05364); test: Tested for the inhibitory activity against beta-lactamase, Enterobacter cloacae at dose of 10 ug/mL using substrate cephaloridine (CER); (E. Cloacae enzyme activity is 1.1517 U/ml)
[8] = target: Beta-lactamase (Pseudomonas aeruginosa (strain ATCC 15692 / PAO1 / 1C / PRS 101 / LMG12228)) (UniProt P24735); test: Tested for the inhibitory activity against beta-lactamase, Pseudomonas aeruginosa at dose of 10 ug/mL using substrate cephaloridine (CER); (P. Aeruginosa enzyme activity is 1.0352 U/ml)
[9] = target: TEM-1 beta-lactamase (Escherichia coli) (UniProt P62593); test: Tested for the inhibitory activity against beta-lactamase type TEM-1 at dose of 10 ug/mL using substrate ampicillin (ABPC)
[10] = target: TEM-1 beta-lactamase (Escherichia coli) (UniProt P62593); test: Tested for the inhibitory activity against beta-lactamase type TEM-1 at dose of 0.1 ug/mL using substrate ampicillin (ABPC); (TEM-1 enzyme activity is 1.6328 U/mL)
[11] = Tested for the inhibitory activity against beta-lactamase type CTX-1 at dose of 10 ug/mL using substrate cephaloridine (CER); (CTX-1 enzyme activity is 0.7363 U/ml)

Beta-lactamase (Enterobacter cloacae), sequence (P05364 21-381 limits assumed): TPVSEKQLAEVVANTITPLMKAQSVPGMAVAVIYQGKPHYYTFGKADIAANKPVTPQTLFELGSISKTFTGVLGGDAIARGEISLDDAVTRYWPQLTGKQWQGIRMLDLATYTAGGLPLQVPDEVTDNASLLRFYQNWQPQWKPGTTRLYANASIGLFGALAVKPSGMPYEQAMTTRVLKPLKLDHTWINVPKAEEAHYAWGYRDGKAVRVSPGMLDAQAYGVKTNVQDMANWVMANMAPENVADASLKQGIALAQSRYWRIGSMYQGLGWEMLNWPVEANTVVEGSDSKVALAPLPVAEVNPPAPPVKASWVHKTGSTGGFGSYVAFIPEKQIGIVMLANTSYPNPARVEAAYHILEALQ

Row | SMILES | inhibition [1] [%] | inhibition [2] [%] | inhibition [3] [%] | inhibition [4] [%] | inhibition [5] [%] | inhibition [6] [%] | inhibition [7] [%] | inhibition [8] [%] | inhibition [9] [%] | inhibition [10] [%] | inhibition [11] [%]
1 | Cc1nnc(SC2=C(C(=O)OC(c3ccccc3)c3ccccc3)N3C(=O)C[C@H]3S2)s1 | 8 | 14 | 0 | 6 | 12 |  |  |  |  |  | 
2 | Cn1nnnc1SC1=C(C(=O)OC(c2ccccc2)c2ccccc2)N2C(=O)C[C@H]2S1 |  |  |  |  |  | 10 | 45 | 16 | 28 | 2 | 19
